Test results as given in patent US11814416B2, “Polypeptide capable of passing through blood-brain barrier” (SHENZHEN RUIJIAN […] COMPANY, priority 2018, dated 2023).
Like-named read-outs stand apart in the source and are kept apart here.

Test system: CaV2.2 channels (α1B, α2δ1 and β3)
Assay type: cell-based, Rat
Details: for IC50: read-out: half inhibitory concentration for inhibition of CaV2.2 channel

With “CKGKGAKCSRLMYDCCTGSCRSGKCGGYGRKKRRQRRR [MVIIA-c]” the “reduction of the peak Ca2+ current” value (1 μM) was 98.81±0.427% and the IC50 was 237 nM.

In the case of “CKGKGAKCSRLMYDCCTGSCRSGKCGYGRKKRRQRRR [MVIIA-b]”, the “reduction of the peak Ca2+ current” value is reported as 91.70±1.477% and the IC50 is reported as 379 nM.

For “CKGKGAKCSRLMYDCCTGSCRSGKCGGGYGRKKRRQRRR [MVIIA-d]”, the “reduction of the peak Ca2+ current” value (1 μM) was 84.26±3.127% and the IC50 was 345 nM.

For “CKGKGAKCSRLMYDCCTGSCRSGKCYGRKKRRQRRR [MVIIA-a]”, the “reduction of the peak Ca2+ current” value (1 μM) was 89.45±0.752% and the IC50 was 413 nM.
